Assay results reported in patent publication US11866431B2, “Bicyclic compounds” (Vivace Therapeutics, Inc., priority 2018, dated 2024).

Test system: 8XTBD luciferase reporter (YAP reporter) in HEK293T cells
Test: YAP Reporter Assay
Type: cell-based
Conditions: Homo sapiens, HEK-293T; HEK293T cells stably transfected with 8XTBD luciferase reporter and pRLTK; 24-hr incubation; top concentration 3 μM; read-out: Firefly Luciferase IC50
How it was run: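 Dual-luciferase read-out after 24 h compound exposure at 37° C, 5% CO2; IC50 and maximum inhibition given separately for 8XTBD-firefly and TK-renilla signals. Stable HEK293T reporter cells, 3×10^3/well, received 10-point 1:3 series starting 3 μM final, in quadruplicate.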

For `COc1cc(-c2ccc(C(F)(F)F)cc2)c2ccc(C(=O)N[C@H](C)c3ccccn3)cc2c1` [Compound 293, (R)-7-Methoxy-N-(1-(pyridin-2-yl)ethyl)-5-(4-(trifluoromethyl)phenyl)-2-naphthamide], the IC50 was less than 100 nM.

`COC[C@H](C)NC(=O)c1ccc2c(-c3ccc(C(F)(F)F)cc3)cc(OC)cc2c1` [Compound 294, (S)-7-Methoxy-N-(1-methoxypropan-2-yl)-5-(4-(trifluoromethyl)phenyl)-2-naphthamide] gave an IC50 of less than 100 nM.

`COC[C@@H](C)NC(=O)c1ccc2c(-c3ccc(C(F)(F)F)cc3)cc(OC)cc2c1` [Compound 295, (R)-7-Methoxy-N-(1-methoxypropan-2-yl)-5-(4-(trifluoromethyl)phenyl)-2-naphthamide] showed an IC50 of less than 100 nM.

`COc1cc(-c2ccc(C(F)(F)F)cc2)c2ccc(C(=O)N[C@@H](C)CO)cc2c1` [Compound 296, (S)—N-(1-Hydroxypropan-2-yl)-7-methoxy-5-(4-(trifluoromethyl)phenyl)-2-naphthamide] gave an IC50 of less than 100 nM.

`COc1cc(-c2ccc(C(F)(F)F)cc2)c2ccc(C(=O)N[C@H](C)CO)cc2c1` [Compound 297, (R)—N-(1-Hydroxypropan-2-yl)-7-methoxy-5-(4-(trifluoromethyl)phenyl)-2-naphthamide] was tested, and the IC50 was less than 100 nM.

In the case of `CC(C)NC(=O)c1ccc2c(-c3ccc(C(F)(F)F)cc3)cn3ncnc3c2c1` [Compound 298, N-Isopropyl-6-(4-(trifluoromethyl)phenyl)-[1,2,4]triazolo[5,1-a]isoquinoline-9-carboxamide], the IC50 is reported as 100 to 1000 nM.

`CC(C)NC(=O)c1ccc2c(-c3ccc(C(F)(F)F)cc3)cn3ccnc3c2c1` [Compound 299, N-Isopropyl-6-(4-(trifluoromethyl)phenyl)imidazo[2,1-a]isoquinoline-9-carboxamide] showed an IC50 of 100 to 1000 nM.

`CC(C)NC(=O)c1ccc2c(-c3ccc(C(F)(F)F)cc3)cc3ncnn3c2c1` [Compound 300, N-Isopropyl-5-(4-(trifluoromethyl)phenyl)-[1,2,4]triazolo[1,5-a]quinoline-8-carboxamide] showed an IC50 of 100 to 1000 nM.

Work on `CC(C)NC(=O)c1ccc2c(-c3ccc(C(F)(F)F)cc3)cc(=O)n(C)c2c1` [Compound 306, N-Isopropyl-1-methyl-2-oxo-4-(4-(trifluoromethyl)phenyl)-1,2-dihydroquinoline-7-carboxamide] yielded an IC50 of 100 to 1000 nM.

Compound `CC(C)NC(=O)c1ccc2c(-c3ccc(C(F)(F)F)cc3)cc3nncn3c2c1` [Compound 307, N-Isopropyl-5-(4-(trifluoromethyl)phenyl)-[1,2,4]triazolo[4,3-a]quinoline-8-carboxamide] has an IC50 of 100 to 1000 nM.

`CS(=O)(=O)/C=C/CCNC(=O)c1ccc2c(-c3ccc(C(F)(F)F)cc3)cccc2c1` [Compound 311, (E)-N-(4-(Methylsulfonyl)but-3-en-1-yl)-5-(4-(trifluoromethyl)phenyl)-2-naphthamide] was tested, and the IC50 was less than 100 nM.

Work on `C[C@H](CCN(C)C)NC(=O)c1ccc2c(-c3ccc(C(F)(F)F)cc3)cccc2c1` [Compound 313, N-[(1R)-3-(dimethylamino)-1-methyl-propyl]-5-[4-(trifluoromethyl)phenyl]naphthalene-2-carboxamide] yielded an IC50 of 100 to 1000 nM.

Compound `CCNCC[C@@H](C)NC(=O)c1cnc2c(-c3ccc(C(F)(F)F)cc3)cccc2c1` [Compound 316, N-[(1R)-3-(ethylamino)-1-methyl-propyl]-8-[4-(trifluoromethyl)phenyl]quinoline-3-carboxamide] has an IC50 of 100 to 1000 nM.

With `C[C@@H](NC(=O)c1cnc2c(-c3ccc(C(F)(F)F)cc3)cccc2c1)C1CN(CC(F)F)C1` [Compound 317, (R)—N-(1-(1-(2,2-difluoroethyl)azetidin-3-yl)ethyl)-8-(4-(trifluoromethyl)phenyl)quinoline-3-carboxamide] the IC50 was 100 to 1000 nM.

`C[C@@H](NC(=O)c1cnc2c(-c3ccc(C(F)(F)F)cc3)cccc2c1)C1CN(CCF)C1` [Compound 318, (R)—N-(1-(1-(2-fluoroethyl)azetidin-3-yl)ethyl)-8-(4-(trifluoromethyl)phenyl)quinoline-3-carboxamide] gave an IC50 of 100 to 1000 nM.

Work on `C[C@H](CCN(C)C)NC(=O)c1cnc2c(-c3ccc(C(F)(F)F)cc3)cccc2c1` [Compound 319, N-[(1R)-3-(Dimethylamino)-1-methyl-propyl]-8-[4-(trifluoromethyl)phenyl]quinoline-3-carboxamide] yielded an IC50 of 100 to 1000 nM.

`C[C@@H](NC(=O)c1ccc2c(-c3ccc(C(F)(F)F)cc3)cccc2c1)C1CN(C2CC2)C1` [Compound 320, (R)-N-(1-(1-cyclopropylazetidin-3-yl)ethyl)-5-(4-(trifluoromethyl)phenyl)-2-naphthamide] gave an IC50 of 100 to 1000 nM.

`COc1cc(-c2ccc(C(F)(F)F)cc2F)c2ncc(C(=O)O)cc2c1` [Compound 321, 8-(2-fluoro-4-(trifluoromethyl)phenyl)-6-methoxyquinoline-3-carboxylic Acid] gave an IC50 of less than 100 nM.

In the case of `COc1cc(-c2ccc(C(F)(F)F)cc2)c2ccc(C(=O)O)cc2c1` [Compound 322, 7-methoxy-5-(4-(trifluoromethyl)phenyl)-2-naphthoic Acid], the IC50 is reported as less than 100 nM.

Work on `O=C(O)c1cnc2c(-c3ccc(C(F)(F)F)cc3)cc(OC3CC3)cc2c1` [Compound 323, 6-cyclopropoxy-8-(4-(trifluoromethyl)phenyl)quinoline-3-carboxylic acid] yielded an IC50 of less than 100 nM.

Compound `O=C(O)c1cnc2c(-c3ccc(C(F)(F)F)cc3)cc(OC(F)(F)F)cc2c1` [Compound 324, 6-(Trifluoromethoxy)-8-[4-(trifluoromethyl)phenyl]quinoline-3-carboxylic acid] has an IC50 of less than 100 nM.

With `COc1cc(-c2ccc(C(F)(F)F)cc2)c2ncc(C(=O)O)cc2c1` [Compound 325, 6-methoxy-8-(4-(trifluoromethyl)phenyl)quinoline-3-carboxylic acid] the IC50 was less than 100 nM.

`O=C(O)c1cnc2c(-c3ccc(C(F)(F)F)cc3)cc(Cl)c(Cl)c2c1` [Compound 326, 5,6-dichloro-8-(4-(trifluoromethyl)phenyl)quinoline-3-carboxylic Acid] was tested, and the IC50 was less than 100 nM.

Compound `CCOc1cc(-c2ccc(C(F)(F)F)cc2)c2ncc(C(=O)O)cc2c1` [Compound 327, 6-ethoxy-8-(4-(trifluoromethyl)phenyl)quinoline-3-carboxylic Acid] has an IC50 of less than 100 nM.

`O=C(O)c1cnc2c(-c3ccc(C(F)(F)F)cc3)cc(F)c(F)c2c1` [Compound 328, 5,6-difluoro-8-(4-(trifluoromethyl)phenyl)quinoline-3-carboxylic Acid] showed an IC50 of less than 100 nM.

`O=C(O)c1ccc2c(-c3ccc(S(F)(F)(F)(F)F)cc3)cccc2c1` [Compound 329, 5-[4-(pentafluoro-sulfanyl)phenyl]naphthalene-2-carboxylic Acid] gave an IC50 of less than 100 nM.

For `O=C(O)c1ccc2c(-c3ccc(C(F)(F)F)cc3)cccc2c1` [Compound 330, 5-[4-(trifluoromethyl)phenyl]naphthalene-2-carboxylic Acid], the IC50 was less than 100 nM.

`O=C(O)c1ccc2c(-c3ccc(C(F)(F)F)nc3)cccc2c1` [Compound 331, 5-(6-(trifluoromethyl)pyridin-3-yl)-2-naphthoic Acid] showed an IC50 of 100 to 1000 nM.

With `O=C(O)c1ccc2c(-c3ccc(C(F)(F)F)s3)cccc2c1` [Compound 332, 5-[5-(trifluoromethyl)-2-thienyl]naphthalene-2-carboxylic acid] the IC50 was less than 100 nM.

`O=C(O)c1ccc2c(-c3ccc(C(F)(F)F)cc3)cccc2n1` [Compound 333, 5-(4-(trifluoromethyl)phenyl)quinoline-2-carboxylic Acid] gave an IC50 of 100 to 1000 nM.

Compound `O=C(O)c1cnc2c(-c3ccc(C(F)(F)F)cc3)cccc2n1` [Compound 334, 5-(4-(trifluoromethyl)phenyl)quinoxaline-2-carboxylic Acid] has an IC50 of 100 to 1000 nM.

`O=C(O)c1ccc2c(-c3ccc(C(F)(F)F)cc3)cccc2c1O` [Compound 335, 1-hydroxy-5-(4-(trifluoromethyl)phenyl)-2-naphthoic Acid] was tested, and the IC50 was less than 100 nM.

`O=C(O)c1ccc2c(-c3ccc(C(F)(F)F)cc3)cncc2c1` [Compound 336, 4-[4-(trifluoromethyl)phenyl]isoquinoline-7-carboxylic Acid] was tested, and the IC50 was 100 to 1000 nM.

In the case of `Cn1cc(-c2ccc(C(F)(F)F)cc2)c2ccc(C(=O)O)cc2c1=O` [Compound 337, 2-methyl-1-oxo-4-[4-(trifluoromethyl)phenyl]isoquinoline-7-carboxylic Acid], the IC50 is reported as 100 to 1000 nM.
